Data on one compound can be found in patent publication US20250242031A1, “POLYMER SALTS FOR IMPROVED DRUG DELIVERY FROM AMORPHOUS SOLID DISPERSIONS” (Purdue Research Foundation, priority 2022, published 2025).

This data set in a line: Drug amorphous solubility. The data set is classed as physicochemical. To be noted: aqueous buffer; miconazole, dissolution medium pH 6.8.

SMILES strings stand for the structures. ≈ marks a conversion by molar mass, not a printed value.

Compound `Clc1ccc(COC(Cn2ccnc2)c2ccc(Cl)cc2Cl)c(Cl)c1` (stereo not shown) [miconazole] showed a solubility of around 5 µg/mL (≈ 12 µM).

As a reminder, the solubility is the dissolved amount per volume that the medium holds. Lower therefore signals little dissolved substance.
